# System: anti-M2 human monoclonal antibody Z3G1
# Type: binding
row,Substance,Signal (peptides that bind to Z3G1)
1,674 (SLLTEVETPIRNEWGCRCTDSSD; epitope peptide) [compound 674],2253
2,334 (CSLLTEVGMSLCTEV; epitope peptide) [compound 334],2857
3,499 (CSLLTEVGMSCLCEC; epitope peptide) [compound 499],2101

# System: HuM2e antibody 23K12
# Type: binding, human
row,Substance,Signal (peptides that bind to 23K21 and 8I10)
1,674 (SLLTEVETPIRNEWGCRCTDSSD; epitope peptide) [compound 674],733
2,334 (CSLLTEVGMSLCTEV; epitope peptide) [compound 334],1682
3,499 (CSLLTEVGMSCLCEC; epitope peptide) [compound 499],1066
4,540 (SLLTEHETPIRNEWGCRCNDSSD; epitope peptide) [compound 540],942
5,655 (SLYTEVETPIRNEWGCRCNDSSD; epitope peptide) [compound 655],753
6,561 (SCLTEVETPIRNEWGCRCNDSSD; epitope peptide) [compound 561],892
7,344 (SMLTEVETPIRNEWGCRCNDSSD; epitope peptide) [compound 344],1622
8,589 (CSLLTECGMSCLTEV; epitope peptide) [compound 589],846
9,485 (CSLLTECGMCLCTCV; epitope peptide) [compound 485],1168
10,489 (MSLLTECGMCLLTEV; epitope peptide) [compound 489],1111
11,505 (SLLTEKETPIRNEWGCRCNDSSD; epitope peptide) [compound 505],1055
12,521 (SLLTAVETPIRNEWGCRCNDSSD; epitope peptide) [compound 521],1012
13,483 (CSLLTECGCSLLTEC; epitope peptide) [compound 483],1177
14,362 (CSLLTECGMCLLTEV; epitope peptide) [compound 362],1517
15,369 (SLLTEAETPIRNEWGCRCNDSSD; epitope peptide) [compound 369],1481
16,507 (SLCTEVETPIRNEWGCRCNDSSD; epitope peptide) [compound 507],1050
17,333 (SLLTCVGSLLTEC; epitope peptide) [compound 333],1683
18,548 (CSLLTECGSLCTEV; epitope peptide) [compound 548],917
19,479 (SLLTEDETPIRNEWGCRCNDSSD; epitope peptide) [compound 479],1196
20,361 (SCLCECGCSLLTEC; epitope peptide) [compound 361],1520
21,558 (CSLLTECGMSCLCEC; epitope peptide) [compound 558],897
22,355 (SCLCECGCSLLTEV; epitope peptide) [compound 355],1555
23,305 (CSCLCEVGMSLLTEC; epitope peptide) [compound 305],1925
24,340 (MSCLCECGCSLLTEC; epitope peptide) [compound 340],1652
25,554 (CLLTEVGSLLTCV; epitope peptide) [compound 554],902
26,325 (SLLTECGSLLTEV; epitope peptide) [compound 325],1770

row,Substance,Signal (peptides that bind to 23K21 and 8I10)
1,487 (SLLTNVETPIRNEWGCRCNDSSD; epitope peptide) [compound 487],1142
2,282 (CSCLCEVGMSCLCEC; epitope peptide) [compound 282],2705
3,486 (SLFTEVETPIRNEWGCRCNDSSD; epitope peptide) [compound 486],1156
4,149 (CTEVETPIRNEWGSRSCLTEVETPIRNEWGSRC; epitope peptide) [compound 149],1348
5,518 (SYLTEVETPIRNEWGCRCNDSSD; epitope peptide) [compound 518],1019
6,348 (SLLTECGCSLLTEV; epitope peptide) [compound 348],1597
7,567 (SLLTECGCSCLCEV; epitope peptide) [compound 567],879
8,378 (SLLTECGSLLTEC; epitope peptide) [compound 378],1426
9,480 (SLLTECGCLCTCV; epitope peptide) [compound 480],1193
10,530 (SLLTESETPIRNEWGCRCNDSSD; epitope peptide) [compound 530],974
11,306 (CSLLTECGMSLLTCV; epitope peptide) [compound 306],1918
12,578 (SLLTERETPIRNEWGCRCNDSSD; epitope peptide) [compound 578],859
13,466 (SCLTEVGCSLLTEV; epitope peptide) [compound 466],1250
14,295 (MSLCTEVGMSCLTEV; epitope peptide) [compound 295],2026
15,481 (CSLLTECGMSLCTEV; epitope peptide) [compound 481],1187
16,322 (SKLTEVETPIRNEWGCRCNDSSD; epitope peptide) [compound 322],1784
17,550 (SLLTENETPIRNEWGCRCNDSSD; epitope peptide) [compound 550],914
18,604 (SLCTEVGSCLTEV; epitope peptide) [compound 604],824
19,468 (SCLCECGSLLTEC; epitope peptide) [compound 468],1244
20,498 (SLLTEMETPIRNEWGCRCNDSSD; epitope peptide) [compound 498],1076
21,514 (SLLTEGETPIRNEWGCRCNDSSD; epitope peptide) [compound 514],1029
22,497 (SLLTECGSCLCEC; epitope peptide) [compound 497],1077
23,331 (MSLLTECGMSLLTCV; epitope peptide) [compound 331],1690
24,474 (SLLTECETPIRNEWGCRCNDSSD; epitope peptide) [compound 474],1214
25,472 (SLLTECGSLCTEV; epitope peptide) [compound 472],1218

# Source: patent US8932597B2 (priority 2008, dated 2015)
